Laboratory results taken from the supplement of paper PMC11061612.

Key:
[1] = test system: HO-1-u-1 (Oral Cavity Carcinoma); assay: Bliss excess, mean over the matrix (fraction); higher = more synergy
Summary of the method: (§1)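 Cell lines in DMEM/F12 or RPMI with 10% FBS were plated in 1536-well plates, held 24 hours at 37°C, 5% CO2, then given two-drug dose matrices for 72 hours (DMSO typically 0.2%). Viability was read by CellTiter-Glo 2.0 luminescence and scaled as inhibition from 0 (vehicle wells) to 1 (blank wells). Combination Emax is the second-highest inhibition in the matrix; Bliss excess is observed combination effect minus expected EA + EB − EA·EB, EA and EB being single-agent effects.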

[2] = test system: Mewo (Melanoma); assay: as above
Summary of the method: as §1

[3] = test system: SU-DHL-6 (B-Cell Non-Hodgkin's Lymphoma); assay: as above
Summary of the method: as §1

[4] = test system: HARA (Squamous Cell Lung Carcinoma); assay: as above
Summary of the method: as §1

[5] = test system: RKO (Colorectal Carcinoma); assay: as above
Summary of the method: as §1

[6] = test system: LoVo (Colorectal Carcinoma); assay: as above
Summary of the method: as §1

[7] = test system: NCI-H69 (Small Cell Lung Carcinoma); assay: as above
Summary of the method: as §1

[8] = test system: RT-112 (Bladder Carcinoma); assay: as above
Summary of the method: as §1

[9] = test system: EN (Endometrial Carcinoma); assay: as above
Summary of the method: as §1

[10] = test system: 8305C (Thyroid Gland Carcinoma); assay: as above
Summary of the method: as §1

[11] = test system: OC-314 (Ovarian Carcinoma); assay: combination Emax (second highest fraction inhibited in the dose matrix, 72 h); higher = more inhibition; extreme values may be limits of the assay
Summary of the method: as §1

[12] = test system: HARA (Squamous Cell Lung Carcinoma); assay: as above
Summary of the method: as §1

[13] = test system: LoVo (Colorectal Carcinoma); assay: as above
Summary of the method: as §1

[14] = test system: NCI-H28 (Mesothelioma); assay: as above
Summary of the method: as §1

[15] = test system: LB771-HNC (Head and Neck Carcinoma); assay: Bliss excess, mean over the matrix (fraction); higher = more synergy
Summary of the method: as §1

[16] = test system: OVCAR-8 (Ovarian Carcinoma); assay: as above
Summary of the method: as §1

[17] = test system: 639-V (Bladder Carcinoma); assay: as above
Summary of the method: as §1

[18] = test system: COLO-829 (Melanoma); assay: as above
Summary of the method: as §1

[19] = test system: KARPAS-231 (B-Cell Non-Hodgkin's Lymphoma); assay: as above
Summary of the method: as §1
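Throughout, for Bliss excess, mean over the matrix: after 72 h of two-drug dosing.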

| Compound | Bliss excess [1] | Bliss excess [2] | Bliss excess [3] | Bliss excess [4] | Bliss excess [5] | Bliss excess [6] | Bliss excess [7] | Bliss excess [8] | Bliss excess [9] | Bliss excess [10] | combination Emax [11] | combination Emax [12] | combination Emax [13] | combination Emax [14] | Bliss excess [15] | Bliss excess [16] | Bliss excess [17] | Bliss excess [18] | Bliss excess [19] |
| --- | --- | --- | --- | --- | --- | --- | --- | --- | --- | --- | --- | --- | --- | --- | --- | --- | --- | --- | --- |
| Cc1nc(-c2cn3c(n2)-c2ccc(-c4cnn(C(C)(C)C(N)=O)c4)cc2OCC3)n(C(C)C)n1 [Taselisib] + O=C(Nc1ccc2[nH]nc(-c3ccncc3)c2c1)[C@@H]1CCN(CC(=O)N2CCN(c3ccc(-c4ncccn4)cc3)CC2)C1 [SCH772984] (first compound max 10 µM, 7x7, partner max 5 µM) | 0.0064 | 0.017 | 0.0251 | 0.0577 | 0.146 | -0.0284 | 0.0251 | 0.108 | -0.034 | 0.0199 | 0.747 | 0.871 | 0.738 | 0.589 |  |  |  |  |  |
| COc1nnc2ccc(N3CCC(c4ccc(OCCN5CCN(C)C(=O)[C@H]5C)cc4)CC3)nn12 [AZD5153] + Cn1cnc2c(F)c(Nc3ccc(Br)cc3Cl)c(C(=O)NOCCO)cc21 [Selumetinib] (first compound max 1 µM, 7x7, partner max 10 µM) | 0.0747 | 0.0325 | -0.0278 | 0.0308 | 0.0263 | 0.065 | -0.0503 | 0.0423 | 0.023 | -0.0323 | 0.795 | 0.708 | 0.862 | 0.502 | -0.0895 | 0.0159 | -0.0459 | -0.0086 | -0.0464 |
| C=CCn1c(=O)c2cnc(Nc3ccc(N4CCN(C)CC4)cc3)nc2n1-c1cccc(C(C)(C)O)n1 [AZD1775] + CCc1c2c(nc3ccc(O)cc13)-c1cc3c(c(=O)n1C2)COC(=O)[C@]3(O)CC [SN-38] (first compound max 1 µM, partner max 0.3 µM) | 0.0391 | -0.0402 | 0.0224 | -0.015 | -0.0377 | -0.0388 | -0.0629 | 0.109 | 0.0209 | -0.0536 | 0.996 | 0.943 | 0.818 | 0.551 |  |  |  |  |  |
| CN(C)CCCOc1ccc(-c2ccc3ncc4c(c3c2)n(C2CCOCC2)c(=O)n4C)cn1 [AZD0156] + O=C(c1cc(Cc2n[nH]c(=O)c3ccccc23)ccc1F)N1CCN(C(=O)C2CC2)CC1 [Olaparib] (first compound max 3 µM, partner max 3 µM) | 0.0795 | -0.0711 | 0.125 | 0.0504 | 0.0736 | 0.0346 | 0.0386 | 0.0239 | -0.0292 | -0.014 | 0.497 | 0.411 | 0.693 | 0.323 | 0.033 | 0.0073 | 0.0535 | -0.0578 | 0.0651 |
| NC1(C(=O)N[C@@H](CCO)c2ccc(Cl)cc2)CCN(c2ncnc3[nH]ccc23)CC1 [Capivasertib] + CC(C)n1c(=O)n(C)c2cnc3cc(F)c(-c4ccc(OCCCN5CCCCC5)nc4)cc3c21 [AZD1390] (first compound max 10 µM, 7x7, partner max 0.3 µM) | -0.0332 | -0.0597 | -0.0071 | -0.0216 | -0.0429 | -0.043 | -0.0793 | -0.0581 | -0.0625 | -0.0773 | 0.421 | 0.514 | 0.586 | 0.281 | -0.0687 | -0.0304 | -0.0376 | -0.126 | -0.0035 |
| CC(=O)c1c(C)c2cnc(Nc3ccc(N4CCNCC4)cn3)nc2n(C2CCCC2)c1=O [Palbociclib] + Cc1c2c(nn1C)CSCc1cc(n(C)n1)CSc1cc(c3ccccc3c1)OCCCc1c(C(=O)O)n(C)c3c-2c(Cl)ccc13 [AZD5991] (first compound max 10 µM, 7x7, partner max 1 µM) | -0.0069 | -0.0291 | 0.0709 | 0.021 | 0.0342 | -0.0584 | -0.0378 | -0.0524 | -0.0544 | -0.0706 | 0.334 | 0.559 | 0.557 | 0.413 | -0.0622 | -0.0281 | -0.0492 | -0.0232 | -0.0835 |
| C[C@@H](c1ccc2nccn2c1)n1nnc2ncc(-c3cnn(C)c3)nc21 [Savolitinib] + CC1(C)CCC(CN2CCN(c3ccc(C(=O)NS(=O)(=O)c4ccc(NCC5CCOCC5)c([N+](=O)[O-])c4)c(Oc4cnc5[nH]ccc5c4)c3)CC2)=C(c2ccc(Cl)cc2)C1 [Venetoclax] (first compound max 1 µM, 7x7, partner max 1 µM) | -0.039 | -0.0647 | 0.0481 | -0.031 | -0.05 | -0.0394 | -0.0144 | -0.046 | -0.0643 | -0.115 | 0.254 | 0.122 | 0.195 | 0.181 | -0.0912 | -0.035 | -0.112 | -0.0411 | -0.0344 |
| NC1(C(=O)N[C@@H](CCO)c2ccc(Cl)cc2)CCN(c2ncnc3[nH]ccc23)CC1 [Capivasertib] + C[C@@H]1COCCN1C2=NC(=NC(=C2)C3(CC3)[S@](=N)(=O)C)C4=C5C=CNC5=NC=C4 [AZD6738] (first compound max 10 µM, 7x7, partner max 10 µM) | -0.0167 | -0.0968 | 0.0023 | -0.0719 | -0.0207 | -0.0575 | -0.0397 | -0.0698 | -0.039 | -0.0308 | 0.793 | 0.868 | 0.801 | 0.512 | -0.0503 | -0.0485 | -0.0134 | 0.0403 | -0.0334 |
| CS(=O)(=O)CCNCc1ccc(-c2ccc3ncnc(Nc4ccc(OCc5cccc(F)c5)c(Cl)c4)c3c2)o1 [Lapatinib] + Cn1cnc2c(F)c(Nc3ccc(Br)cc3Cl)c(C(=O)NOCCO)cc21 [Selumetinib] (first compound max 10 µM, 7x7, partner max 10 µM) | -0.0047 | -0.0029 | 0.0412 | -0.0257 | 0.0413 | 0.0361 | -0.0384 | 0.0134 | -0.0829 | -0.0297 | 0.691 | 0.76 | 0.742 | 0.412 |  |  |  |  |  |
| NC1(C(=O)N[C@@H](CCO)c2ccc(Cl)cc2)CCN(c2ncnc3[nH]ccc23)CC1 [Capivasertib] + CC(=O)c1c(C)c2cnc(Nc3ccc(N4CCNCC4)cn3)nc2n(C2CCCC2)c1=O [Palbociclib] (first compound max 10 µM, 7x7, partner max 10 µM) | -0.0234 | -0.0588 | 0.0059 | 0.0388 | 0.0625 | -0.03 | -0.0632 | -0.0324 | -0.0165 | -0.0461 | 0.515 | 0.689 | 0.722 | 0.425 | -0.0781 | -0.0017 | -0.0612 | -0.0549 | -0.044 |
| COc1nnc2ccc(N3CCC(c4ccc(OCCN5CCN(C)C(=O)[C@H]5C)cc4)CC3)nn12 [AZD5153] + C=CCn1c(=O)c2cnc(Nc3ccc(N4CCN(C)CC4)cc3)nc2n1-c1cccc(C(C)(C)O)n1 [AZD1775] (first compound max 1 µM, partner max 1 µM) | -0.0526 | -0.0245 | -0.0656 | -0.0899 | -0.0866 | -0.0349 | -0.0303 | -0.0342 | -0.0753 | -0.077 | 0.912 | 0.928 | 0.656 | 0.508 | -0.0069 | -0.0631 | -0.0367 | -0.0178 | -0.112 |
| NC1(C(=O)N[C@@H](CCO)c2ccc(Cl)cc2)CCN(c2ncnc3[nH]ccc23)CC1 [Capivasertib] + COc1nnc2ccc(N3CCC(c4ccc(OCCN5CCN(C)C(=O)[C@H]5C)cc4)CC3)nn12 [AZD5153] (first compound max 10 µM, 7x7, partner max 1 µM) | 0.0041 | -0.0532 | -0.0424 | -0.0019 | 0.0048 | 0.042 | 0.019 | 0.0334 | 0.0304 | 0.014 | 0.818 | 0.77 | 0.642 | 0.453 | 0.0208 | 0.0505 | 0.0409 | 0.011 | -0.0391 |
| NC1(C(=O)N[C@@H](CCO)c2ccc(Cl)cc2)CCN(c2ncnc3[nH]ccc23)CC1 [Capivasertib] + Cn1cnc2c(F)c(Nc3ccc(Br)cc3Cl)c(C(=O)NOCCO)cc21 [Selumetinib] (first compound max 10 µM, 7x7, partner max 10 µM) | 0.126 | 0.0069 | 0.0255 | -0.0186 | 0.0463 | -0.004 | -0.0198 | 0.01 | 0.0288 | -0.0212 | 0.604 | 0.607 | 0.717 | 0.404 | -0.0595 | 0.037 | -0.0183 | 0.0367 | -0.0465 |
| COc1nnc2ccc(N3CCC(c4ccc(OCCN5CCN(C)C(=O)[C@H]5C)cc4)CC3)nn12 [AZD5153] + CCN(CCO)CCCOc1ccc2c(Nc3cc(CC(=O)Nc4cccc(F)c4)[nH]n3)ncnc2c1 [AZD2811] (first compound max 1 µM, 7x7, partner max 1 µM) | -0.121 | -0.0578 | -0.0215 | -0.0548 | -0.0096 | -0.0623 | 0.0048 | -0.0595 | -0.0918 | -0.0629 | 0.884 | 0.679 | 0.627 | 0.518 | -0.0006 | -0.0131 | -0.063 | -0.0173 | -0.203 |
| CS(=O)(=O)CCNCc1ccc(-c2ccc3ncnc(Nc4ccc(OCc5cccc(F)c5)c(Cl)c4)c3c2)o1 [Lapatinib] + NC1(c2ccc(-c3nc4ccn5c(=O)[nH]nc5c4cc3-c3ccccc3)cc2)CCC1 [MK-2206] (first compound max 10 µM, 7x7, partner max 10 µM) | 0.0235 | 0.0072 | 0.0378 | 0.086 | -0.0002 | 0.0841 | 0.0389 | 0.0746 | -0.0024 | 0.118 | 0.873 | 0.953 | 0.713 | 0.607 |  |  |  | -0.0245 |  |
